Test results reported in PMC8279409, “Novel Mixed NOP/Opioid Receptor Peptide Agonists” (Journal of Medicinal Chemistry, 2021).
Where “and” joins values, the source holds several entries; their conditions need not be identical. Equal values may be shown once. Read-outs that look alike come from different tables or passages of the source. Where a SMILES comes first, the peptide text is derived from it. Where no end group is shown, it is not given here. [ ]: non-standard residue; d: D form. Dmt = Cc1cc(O)cc(C)c1C[C@H](N)C(=O)O

How the values were obtained:
Assay type in all cases: cell-based
[1] = molecular target: T1, human NOP receptor (Homo sapiens, UniProt P41146); assay: Calcium mobilization, NOP receptor; details: for Emax: mean ± SEM of at least three experiments in duplicate, SEM; for NOP pEC50 (CL95%): CHO cells coexpressing human NOP and Gαqi5, Fluo-4 AM, 37 °C, mean of at least three experiments in duplicate, CL95% in brackets; for NOP/mu CR (concentration ratio): calcium mobilization, NOP versus mu
T1 construct: expressed in transfected cells; host or cells: CHO cells stably coexpressing the receptor and chimeric Gαqi5
Description: CHO cells stably coexpressing the human NOP or kappa or the mu receptor and the C-terminally modified Gαqi5 and CHO cells coexpressing the delta receptor and the GαqG66Di5 protein were generated and cultured as described previously.[45],[46] Cells were maintained in Dulbecco’s modified Eagle’s medium/nutrient mixture F-12 (DEMEM/F-12) supplemented with 10% FBS, 100 U/mL penicillin and 100 μg/mL streptomycin, 100 μg/mL hygromicin B, and 200 μg/mL G418 and cultured at 37 °C in 5% CO2 humidified air. Cells were seeded at a density of 50,000 cells/well into 96-well black, clear-bottom plates. The following day, the cells were incubated with Hanks’ balanced salt solution (HBSS) supplemented with 2.5 mM probenecid, 3 μM of the calcium-sensitive fluorescent dye Fluo-4 AM, and 0.01% pluronic acid for 30 min at 37 °C. After that time, the loading solution was aspirated and 100 μL/well of HBSS supplemented with 20 mM HEPES, 2.5 mM probenecid, and 500 μM brilliant black was added. Serial dilutions were carried out in HBSS/HEPES (20 mM) buffer (containing 0.02% BSA fraction V). After placing both plates (cell culture and master plate) into the fluorometric imaging plate reader FlexStation II (Molecular Devices, Sunnyvale, CA), fluorescence changes were measured. On-line additions were carried out in a volume of 50 μL/well. To facilitate drug diffusion into the wells, the present studies were performed at 37 °C. Maximum change in fluorescence, expressed as percent over the baseline fluorescence, was used to determine agonist response.
(§1) The pharmacological terminology adopted in this paper is consistent with IUPHAR recommendations.[59] All data are expressed as the mean ± standard error of the mean (SEM) of at least three experiments performed in duplicate. […] Concentration-response curves to agonists were fitted to the classical four-parameter logistic nonlinear regression model:
(§2) Effect = Baseline + (Emax – Baseline)/(1 + 10^(LogEC50 – Log[compound]) × Hillslope). Curve fitting was performed using PRISM 6.0 (GraphPad Software Inc., San Diego).

[2] = molecular target: T2, human mu receptor (Homo sapiens, UniProt P35372); assay: Calcium mobilization, mu opioid receptor; details: for Emax / activation at 10 µM: percent over the baseline fluorescence, SEM; for Emax: mean ± SEM of at least three experiments in duplicate; for mu pEC50 (CL95%): CHO cells coexpressing human mu receptor and Gαqi5, Fluo-4 AM, 37 °C, mean of at least three experiments in duplicate, CL95% in brackets; for pEC50_mu: molecular formula strings CSV, repeats calcium mobilization values of Tables 1-3; for activation at 10 µM: mean ± SEM
T2 construct: expressed in transfected cells; host or cells: CHO cells stably coexpressing the receptor and chimeric Gαqi5

[3] = molecular target: T2, human mu receptor; assay: Dynamic mass redistribution (DMR), mu receptor
Description: CHO cells stably expressing the human NOP and mu receptors were kindly provided by D.G. Lambert (University of Leicester, UK). Cells were cultured in DMEM/F-12 medium supplemented with 10% FBS, 100 U/mL penicillin, 100 μg/mL streptomycin, and 2 mmol/L L-glutamine. The medium was supplemented with 400 μg/mL G418 to maintain expression. Cells were cultured at 37 °C in 5% CO2 humidified air. For DMR measurements, the label-free EnSight Multimode Plate Reader (Perkin Elmer, MA, US) was used. Cells were seeded 15,000 cells/well in a volume of 30 μL onto fibronectin-coated 384-well DMR microplates and cultured for 20 h to obtain confluent monolayers. Cells were starved in the assay buffer (HBSS with 20 mM HEPES, 0.01% BSA fraction V) for 90 min before the test. Serial dilutions were made in the assay buffer. After reading the baseline, compounds were added in a volume of 10 μL; then, DMR changes were recorded for 60 min. Responses were described as picometer (pm) shifts over time (sec) following subtraction of values from vehicle-treated wells. Maximum picometer (pm) modification (peak) was used to generate concentration response curves. All the experiments were carried out at 37 °C.
as §1, §2

[4] = read-out: NOP Emax ± S.E.M., Table 3 series, percent over the baseline fluorescence
[5] = read-out: mu Emax ± S.E.M., Table 3 series
[6] = read-out: NOP Emax ± S.E.M., Table 2 series, percent over the baseline fluorescence
[7] = read-out: mu effect at 10 μM (crc incomplete), Table 2 series
[8] = read-out: NOP Emax ± S.E.M., Table 1 series, maximum change in fluorescence as percent over the baseline fluorescence
[9] = read-out: mu effect at 10 μM (crc incomplete), Table 1 series
[10] = read-out: mu Emax ± S.E.M, Table 1 series

T1 sequence (P41146 whole entry): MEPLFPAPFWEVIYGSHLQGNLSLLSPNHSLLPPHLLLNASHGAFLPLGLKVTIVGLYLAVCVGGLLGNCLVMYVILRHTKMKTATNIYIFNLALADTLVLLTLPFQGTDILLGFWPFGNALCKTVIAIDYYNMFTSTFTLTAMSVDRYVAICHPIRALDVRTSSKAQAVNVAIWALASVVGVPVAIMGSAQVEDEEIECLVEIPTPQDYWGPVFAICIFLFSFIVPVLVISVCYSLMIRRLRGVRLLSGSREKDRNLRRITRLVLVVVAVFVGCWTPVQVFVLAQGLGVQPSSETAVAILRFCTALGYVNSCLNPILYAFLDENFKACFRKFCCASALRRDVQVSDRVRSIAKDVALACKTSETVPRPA
T2 sequence (P35372 whole entry): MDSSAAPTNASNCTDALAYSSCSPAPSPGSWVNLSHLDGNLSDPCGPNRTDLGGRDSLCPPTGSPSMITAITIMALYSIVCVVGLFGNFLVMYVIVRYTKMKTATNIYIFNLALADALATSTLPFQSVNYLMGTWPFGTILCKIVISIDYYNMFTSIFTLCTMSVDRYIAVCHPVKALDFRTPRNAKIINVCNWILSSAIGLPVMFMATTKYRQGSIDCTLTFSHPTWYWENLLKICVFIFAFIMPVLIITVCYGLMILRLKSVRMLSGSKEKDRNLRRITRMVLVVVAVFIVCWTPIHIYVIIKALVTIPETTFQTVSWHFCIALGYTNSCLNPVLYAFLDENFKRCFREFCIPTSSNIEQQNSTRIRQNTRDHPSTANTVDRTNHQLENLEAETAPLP

Compound | Emax [1, 6] [%] | mu pEC50 (CL95%) ([2]; Table 2 series) | pEC50_mu [2] | NOP pEC50 (CL95%) ([1]; Table 1 series, FlexStation II) | NOP/mu CR (concentration ratio) ([1]; Table 1 series) | Emax [1, 8] [%] | mu pEC50 (CL95%) ([2]; Table 1 series) | activation at 10 µM [2, 9] [%] | other results
Cc1cc(O)cc(C)c1C[C@H](NC(=O)[C@H](Cc1ccccc1)NC(=O)CNC(=O)CNC(=O)[C@@H](N)Cc1c(C)cc(O)cc1C)C(=O)NCC(=O)N[C@@H](C)C(=O)N[C@@H](CCCNC(=N)N)C(=O)N[C@@H](CCCCN)C(=O)N[C@@H](CO)C(=O)N[C@@H](C)C(=O)N[C@@H](CCCNC(=N)N)C(=O)N[C@@H](CCCCN)C(N)=O [Compound 35, [Dmt^1,5]N/OFQ(1-13)-NH2] (H-[Dmt]GGF[Dmt]GARKSARK-NH2) |  |  |  |  |  |  |  |  | Emax [1, 4]: 270 ± 25%; Emax [2, 5]: 354 ± 16%
CC(C)C[C@H](NC(=O)[C@H](CCCCN)NC(=O)[C@H](CCCNC(=N)N)NC(=O)[C@H](C)NC(=O)[C@H](CO)NC(=O)[C@H](CCCCN)NC(=O)[C@H](CCCNC(=N)N)NC(=O)[C@H](C)NC(=O)CNC(=O)[C@@H](NC(=O)[C@H](Cc1ccccc1)NC(=O)CNC(=O)CNC(=O)[C@@H](N)Cc1ccccc1)[C@@H](C)O)C(=O)N[C@@H](C)C(=O)N[C@@H](CC(N)=O)C(=O)N[C@@H](CCC(N)=O)C(=O)O [Compound 36, N/OFQ] |  |  |  |  |  |  |  |  | mu pEC50 (CL95%) ([3]; DMR, CHO cells expressing human mu receptor, 60 min, 37 °C, mean of at least three experiments in duplicate, CL95% in brackets): inactive; mu Emax ± S.E.M. ([3]; DMR, maximum picometer (pm) modification (peak), mean ± SEM of at least three experiments in duplicate): inactive; pEC50_mu ([3]; molecular formula strings CSV, value of Compound_36 repeats the DMR result of Table 4): inactive
YGGFFGARKSARK-NH2 [Compound 15, [Tyr^1,Phe^5]N/OFQ(1-13)-NH2] | 242 ± 11 | 6.41 (5.85–6.97) |  |  |  |  |  |  | NOP pEC50 (CL95%) ([1]; Table 2 series): 7.72 (7.56–7.87); NOP/mu CR (concentration ratio) ([1]; Table 2 series): 0.05; Emax ([2]; read-out: mu Emax ± S.E.M., Table 2 series): 315 ± 32%
YGGFHGARKSARK-NH2 [Compound 16, [Tyr^1,His^5]N/OFQ(1-13)-NH2] | 249 ± 23 | crc incomplete; 10 μM: 230 ± 37 | crc incomplete |  |  |  |  |  | NOP pEC50 (CL95%) ([1]; Table 2 series): 7.39 (7.16–7.62); NOP/mu CR (concentration ratio) ([1]; Table 2 series): 0.05; activation at 10 µM [2, 7]: 230 ± 37%
YGGFK(Ac)GARKSARK-NH2 [Compound 6, [Tyr^1,Lys(Ac)^5]N/OFQ(1-13)-NH2] |  |  | crc incomplete | 8.55 (7.88–9.22) | 0.003 | 370 ± 16 | crc incomplete; 10 μM: 161 ± 31 | 161 ± 31 | 
YGGFKGARKSARK-NH2 [Compound 8, [Tyr^1,Lys^5]N/OFQ(1-13)-NH2] |  |  | crc incomplete | 7.26 (6.74–7.78) | 0.05 | 366 ± 6 | crc incomplete; 10 μM: 113 ± 35 | 113 ± 35 | 
YGGFLGARKSARK-NH2 [Compound 11, [Tyr^1,Leu^5]N/OFQ(1-13)-NH2] |  |  |  | 8.03 (7.46–8.60) | 0.01 | 339 ± 24 | 6.08 (5.95–6.21) |  | Emax [2, 10]: 339 ± 25%
YGGFNGARKSARK-NH2 [Compound 4, [Tyr^1,Asn^5]N/OFQ(1-13)-NH2] |  |  | crc incomplete | 8.70 (8.26–9.11) | 0.002 | 327 ± 15 | crc incomplete; 10 μM: 209 ± 29 | 209 ± 29 | 
YGGFTGARKSARK-NH2 [Compound 3, [Tyr^1]N/OFQ(1-13)-NH2, reference compound] [listing 1 of 2 here] |  |  |  |  |  |  |  |  | EC50 [1]: 0.741 nM and 0.708 nM; EC50 [2]: 1580 nM
YGGFTGARKSARK-NH2 [Compound 3, [Tyr^1]N/OFQ(1-13)-NH2, reference compound] [listing 2 of 2 here] | 266 ± 14 | crc incomplete; 10 μM: 217 ± 29 | crc incomplete | 9.23 (9.07–9.39) | 0.001 | 380 ± 11 | crc incomplete; 10 μM: 197 ± 69 | 197 ± 69 | NOP/mu CR (concentration ratio) ([1]; Table 3 series): <0.001; Emax [1, 4]: 236 ± 13%; Emax [2, 5]: 251 ± 34%; activation at 10 µM [2, 7]: 217 ± 29%
YGGFVGARKSARK-NH2 [Compound 5, [Tyr^1,Val^5]N/OFQ(1-13)-NH2] |  |  | crc incomplete | 8.70 (8.53–8.87) | 0.002 | 334 ± 19 | crc incomplete; 10 μM: 254 ± 19 | 254 ± 19 | 
YGGFWGARKSARK-NH2 [Compound 17, [Tyr^1,Trp^5]N/OFQ(1-13)-NH2] | 288 ± 28 | crc incomplete; 10 μM: 193 ± 31 | crc incomplete |  |  |  |  |  | NOP pEC50 (CL95%) ([1]; Table 2 series): 7.27 (7.19–7.35); NOP/mu CR (concentration ratio) ([1]; Table 2 series): 0.07; activation at 10 µM [2, 7]: 193 ± 31%
YGGFYGARKSARK-NH2 [Compound 14, [Tyr^1,5]N/OFQ(1-13)-NH2] |  |  |  | 7.07 (6.68–7.46) | 0.49 | 332 ± 19 | 6.76 (6.34–7.18) |  | Emax [2, 10]: 357 ± 21%
